Test results from US20070232681A1, “Compounds Having Crth2 Antagonist Activity” (Oxagen Limited, priority 2003, published 2007).

Columns and labels:
[1] = molecular target: T1, CRTH2 (Homo sapiens, UniProt Q9Y5Y4); assay: [3H]PGD2 radioligand binding on CHO/CRTH2 cell membranes; conditions: competition versus [3H]PGD2, CHO/CRTH2 membranes
T1 construct: expressed in transfected cells; host or cells: Chinese Hamster Ovary (CHO) cells, G418 selected
T1 sequence (Q9Y5Y4 1-395): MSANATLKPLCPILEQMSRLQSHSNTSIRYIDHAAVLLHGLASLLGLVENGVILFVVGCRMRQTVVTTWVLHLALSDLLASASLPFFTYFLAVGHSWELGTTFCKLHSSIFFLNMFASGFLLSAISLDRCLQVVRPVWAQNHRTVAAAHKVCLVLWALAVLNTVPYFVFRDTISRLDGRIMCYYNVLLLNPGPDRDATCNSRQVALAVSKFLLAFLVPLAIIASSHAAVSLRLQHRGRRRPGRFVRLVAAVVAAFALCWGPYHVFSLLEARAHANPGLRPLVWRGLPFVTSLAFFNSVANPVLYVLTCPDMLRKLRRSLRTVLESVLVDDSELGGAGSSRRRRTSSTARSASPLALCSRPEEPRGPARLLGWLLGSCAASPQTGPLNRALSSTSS
Method: (§1) Chinese Hamster Ovary cells were transfected with CRTH2 or DP receptors (CHO/CRTH2 and CHO/DP) and were maintained in culture in a humidified atmosphere at 37° C. (5% CO2) in Minimum Essential Medium (MEM) supplemented with 10% foetal bovine serum, 2 mM glutamine, and 1 mg ml^−1 active G418. The cells were passaged every 2-3 days. For radioligand binding assay, cells were prepared in triple-layer flasks or in 175 cm^2 square flasks (for membrane preparation). For calcium mobilisation assay, cells were grown in a 96 well plate 24 h prior to the assay at a density of 80,000 cells per well.
(§2) Membranes were prepared either from CHO/CRTH2 and CHO/DP cells, or from platelets (as a source of TP receptors). CHO cells grown to confluency were washed with PBS and detached using a Versene solution (15 ml per flask). When the cells were grown in 175 cm^2 square flask, they were collected by scrapping in PBS. The cell suspensions were centrifuged (1,700 rpm, 10 min, 4° C.) and resuspended in 15 ml of buffer (1×HBSS, supplemented with 10 mM HEPES, pH 7.3). Cell suspensions were then homogenised using an Ultra Turrax at setting 4-6 for 20 s. The homogenate was centrifuged at 1,700 rpm for 10 min and the supernatant was collected and centrifuged at 20,000 rpm for 1 h at 4° C. The resulting pellet was resuspended in buffer and stored at −80° C. in aliquots of 200-500 μl. The protein concentration was determined by the method of Bradford (1976), using bovine serum albumin as standard. The platelets were washed by centrifugation at 600×g for 10 min and resuspended in ice-cold assay buffer (10 mM Tris-HCl, pH 7.4, 5 mM Glucose, 120 mM NaCl, 10 μM indomethacin) and directly centrifuged at 20,000 rpm for 30 min at 4° C. The resulting pellet was treated as described above.
(§3) [3H]PGD2 (160 Ci/mmol) binding experiments were performed on membranes prepared as described above. Assays were performed in a final volume of 100 μl of buffer (1×HBSS/HEPES 10 mM, pH 7.3). Cell membranes (15 μg). Cell membranes […] were preincubated at room temperature with varying concentration of competing ligand for 15 min. [3H]PGD2 ([…]) was then added and the incubation continued for a further one hour at room temperature. The reaction was terminated by the addition of 200 μl ice-cold assay buffer to each well, followed by rapid filtration through Whatman GF/B glass fibre filters using a Unifilter Cell harvester (PerkinElmer Life Sciences) and six washes of 300 μl of ice-cold buffer. The Unifilter plates were dried at room temperature for at least 1 h and the radioactivity retained on the filters was determined on a Beta Trilux counter (PerkinElmer Life Sciences), following addition of 40 μl of Optiphase Hi-Safe 3 (Wallac) liquid scintillation. Non specific binding was defined in the presence of […] unlabelled PGD2. Assays were performed in duplicate.

[2] = molecular target: T1, CRTH2; assay: Calcium mobilisation assay in CHO/CRTH2 cells (PGD2-induced calcium flux); assay type: cell-based; conditions: for IC50: inhibition of PGD2-induced calcium flux, read-out: CRTH2 Ca flux IC50
Method: as §1
Cells were seeded onto poly-D-lysine coated 96-well plates at a density of 80,000 cells per well and incubated at 37° C. overnight to allow the cells to adhere. Cells were washed twice with HBSS and incubated for 1 h at 37° C. in 100 μl HBSS and 100 μl calcium-3-dye (Molecular Devices) solution, supplemented with 4 mM probenecid. Changes in fluorescence were monitored over a 50 s time course with agonist addition at 17s using a Flexstation (Molecular Devices).

[3] = molecular target: T2, DP receptor (Homo sapiens, UniProt Q13258); assay: [3H]PGD2 radioligand binding on CHO/DP cell membranes; conditions: competition versus [3H]PGD2, CHO/DP membranes
T2 construct: expressed in transfected cells; host or cells: Chinese Hamster Ovary (CHO) cells, G418 selected
T2 sequence (Q13258 1-359): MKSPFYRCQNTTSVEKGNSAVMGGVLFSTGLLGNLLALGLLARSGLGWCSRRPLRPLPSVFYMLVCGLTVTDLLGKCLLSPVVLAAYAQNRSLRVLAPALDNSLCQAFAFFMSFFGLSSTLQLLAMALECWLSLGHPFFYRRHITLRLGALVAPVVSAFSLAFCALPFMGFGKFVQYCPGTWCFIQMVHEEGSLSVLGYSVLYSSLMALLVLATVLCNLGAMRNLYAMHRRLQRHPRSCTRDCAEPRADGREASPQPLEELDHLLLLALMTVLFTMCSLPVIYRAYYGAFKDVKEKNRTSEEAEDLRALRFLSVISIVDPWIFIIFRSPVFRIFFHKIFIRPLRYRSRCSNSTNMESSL
Method: as §1, §2, §3

SMILES	Ki [1] [nM]	IC50 [2] [nM]	Ki [3] [µM]	EC50 ([2]; agonist, n=3, read-out: EC50 for increase in intracellular Ca2+ mobilisation) [nM]
CCCCS(=O)(=O)c1c(C)n(CC(=O)O)c2ccc(F)cc12 [Compound 1, [3-(Butane-1-sulfonyl)-5-fluoro-2-methyl-indol-1-yl]-acetic acid]	192	280	> 10	–
Cc1c(S(=O)(=O)c2ccc(-c3ccccc3)cc2)c2cc(F)ccc2n1CC(=O)O [Compound 2]	75	163	> 10	–
Cc1c(S(=O)(=O)CC(=O)O)c2cc(F)ccc2n1CC(=O)O [Compound 3, (3-Carboxymethanesulfonyl-5-fluoro-2-methyl-indol-1-yl)-acetic acid]	2000	–	–	–
Cc1c(S(=O)(=O)CC(N)=O)c2cc(F)ccc2n1CC(=O)O [Compound 4, (3-Carbamoylmethanesulfonyl-5-fluoro-2-methyl-indol-1-yl)-acetic acid]	2300	–	–	–
Cc1c(S(=O)(=O)CCS(C)(=O)=O)c2cc(F)ccc2n1CC(=O)O [Compound 5, [5-Fluoro-3-(2-methanesulfonyl-ethanesulfonyl)-2-methyl-indol-1-yl]-acetic acid]	89	268	> 10	–
Cc1c(S(=O)(=O)c2nc3ccccc3s2)c2cc(F)ccc2n1CC(=O)O [Compound 6, [3-(Benzothiazole-2-sulfonyl)-5-fluoro-2-methyl-indol-1-yl]-acetic acid]	209	345	–	–
Cc1c([S+]([O-])c2nc3ccccc3s2)c2cc(F)ccc2n1CC(=O)O (stereo not shown) [Compound 7, [3-(Benzothiazole-2-sulfinyl)-5-fluoro-2-methyl-indol-1-yl]-acetic acid]	54	163	–	–
Cc1c(S(=O)(=O)c2ccc3ccccc3n2)c2cc(F)ccc2n1CC(=O)O [Compound 8, [5-Fluoro-2-methyl-3-(quinoline-2-sulfonyl)-indol-1-yl]-acetic acid]	249	330	–	–
Cc1c(S(=O)(=O)c2cccc3cccnc23)c2cc(F)ccc2n1CC(=O)O [Compound 9, [5-Fluoro-2-methyl-3-(quinolin-8-ylsulfonyl)-indol-1-yl]-acetic acid]	254	–	> 10	–
Cc1c(S(=O)(=O)Cc2ccccc2)c2cc(F)ccc2n1CC(=O)O [Compound 10, (5-Fluoro-2-methyl-3-phenylmethanesulfonyl-1H-indol-1-yl)-acetic acid]	6	79	–	–
Cc1c(S(=O)(=O)Nc2ccc(Cl)cc2)c2cc(F)ccc2n1CC(=O)O [Compound 11, [3-(4-Chloro-phenylsulfamoyl)-5-fluoro-2-methyl-indol-1-yl]-acetic acid]	51	197	> 10	–
Cc1c(S(=O)(=O)Nc2cccc(Cl)c2)c2cc(F)ccc2n1CC(=O)O [Compound 12, [3-(3-Chloro-phenylsulfamoyl)-5-fluoro-2-methyl-indol-1-yl]-acetic acid]	45	82	> 10	–
Cc1c(S(=O)(=O)Nc2ccc(F)cc2)c2cc(F)ccc2n1CC(=O)O [Compound 13, [3-(4-Fluoro-phenylsulfamoyl)-5-fluoro-2-methyl-indol-1-yl]-acetic acid]	182	1650	–	–
CCCCC[C@H](O)/C=C/[C@H]1C(=O)C[C@H](O)[C@@H]1C/C=C\CCCC(=O)O [PGD2, prostaglandin D2, reference compound]	–	–	–	2.4

The next lines start with results.

Ki [1] [nM]	IC50 [2] [nM]	Ki [3] [µM]	SMILES	EC50 ([2]; agonist, n=3, read-out: EC50 for increase in intracellular Ca2+ mobilisation) [nM]
225	390	–	Cc1c(S(=O)(=O)Nc2ccccc2Cl)c2cc(F)ccc2n1CC(=O)O [Compound 14, [3-(2-Chloro-phenylsulfamoyl)-5-fluoro-2-methyl-indol-1-yl]-acetic acid]	–
278	–	> 10	Cc1c(S(=O)(=O)NCc2ccccc2)c2cc(F)ccc2n1CC(=O)O [Compound 15, (3-Benzylsulfamoyl-5-fluoro-2-methyl-indol-1-yl)-acetic acid]	–
771	–	> 10	COc1ccccc1NS(=O)(=O)c1c(C)n(CC(=O)O)c2ccc(F)cc12 [Compound 16, [5-Fluoro-3-(2-methoxy-phenylsulfamoyl)-2-methyl-indol-1-yl]-acetic acid]	–
1450	–	> 10	COc1ccc(NS(=O)(=O)c2c(C)n(CC(=O)O)c3ccc(F)cc23)cc1 [Compound 17, [5-Fluoro-3-(4-methoxy-phenylsulfamoyl)-2-methyl-indol-1-yl]-acetic acid]	–
236	–	> 10	Cc1c(S(=O)(=O)Nc2ccccc2)c2cc(F)ccc2n1CC(=O)O [Compound 18, (5-Fluoro-2-methyl-3-phenylsulfamoyl-indol-1-yl)-acetic acid]	–
181	–	> 10	Cc1c(S(=O)(=O)NCc2ccc(Cl)c(Cl)c2)c2cc(F)ccc2n1CC(=O)O [Compound 19, [3-(3,4-Dichloro-benzylsulfamoyl)-5-fluoro-2-methyl-indol-1-yl]-acetic acid]	–
531	–	> 10	COc1cccc(NS(=O)(=O)c2c(C)n(CC(=O)O)c3ccc(F)cc23)c1 [Compound 20, [5-Fluoro-3-(3-methoxy-phenylsulfamoyl)-2-methyl-indol-1-yl]-acetic acid]	–
176	1060	> 10	Cc1cccc(NS(=O)(=O)c2c(C)n(CC(=O)O)c3ccc(F)cc23)c1 [Compound 21, (5-Fluoro-2-methyl-3-m-tolylsulfamoyl-indol-1-yl)-acetic acid]	–
1240	–	> 10	Cc1ccc(NS(=O)(=O)c2c(C)n(CC(=O)O)c3ccc(F)cc23)cc1 [Compound 22, (5-Fluoro-2-methyl-3-p-tolylsulfamoyl-indol-1-yl)-acetic acid]	–
164	–	> 10	Cc1c(S(=O)(=O)NCc2ccc(Cl)cc2)c2cc(F)ccc2n1CC(=O)O [Compound 23, [3-(4-Chloro-benzylsulfamoyl)-5-fluoro-2-methyl-indol-1-yl]-acetic acid]	–
119	–	> 10	Cc1c(S(=O)(=O)N(C)Cc2ccccc2)c2cc(F)ccc2n1CC(=O)O [Compound 24, [3-(Benzyl-methyl-sulfamoyl)-5-fluoro-2-methyl-indol-1-yl]-acetic acid]	–
4250	–	> 10	Cc1c(S(=O)(=O)Nc2cccnc2)c2cc(F)ccc2n1CC(=O)O [Compound 25, [5-Fluoro-2-methyl-3-(pyridin-3-ylsulfamoyl)-indol-1-yl]-acetic acid]	–
